Read-outs that look alike come from different tables or passages of the source.
Columns and labels:
Type in all cases: cell-based, human
[1] = test system: MCF-7/HYOR cells; assay: Tumor cell proliferation assay, M. hyorhinis-infected MCF-7 cells; settings: for IC50: Homo sapiens, MCF7; for Ratio (1)/(2) MCF-7/HYOR: IC50 in the absence of TPi to IC50 in the presence of TPi; for Anti-proliferative activity in MCF-7/HYOR after three days pre-incubation with doxycycline / Anti-proliferative activity in MCF-7/HYOR after three days pre-incubation with plasmocin: 3 days
Method: Mycoplasma hyorhinis (ATCC 17981) was obtained from the American Type Culture Collection (ATCC, Manassas, Va.). The freeze-dried bacteria were reconstituted by adding 1 ml of DMEM. […] The co-culture of MCF-7 cells and M. hyorhinis was maintained under the same conditions as the uninfected MCF-7 cells. […] The cells were incubated for another 4 days, trypsinized and counted by a Coulter counter (Analis, Suarlée, Belgium).

[2] = test system: MCF-7 cells; assay: Tumor cell proliferation assay, uninfected MCF-7 cells; settings: for IC50: Homo sapiens, uninfected MCF-7; for Ratio (1)/(2) MCF-7: IC50 in the absence of TPi to IC50 in the presence of TPi
Method: MCF-7 and MCF-7/HYOR cells were seeded in 48-well plates at 10,000 cells/cm^2. […] of the test compounds (5FU, 5′DFUR, CIdUrd, BrdUrd, IdUrd and TFT) with or without 10 μM TPi were added. The cells were incubated for another 4 days, trypsinized and counted by a Coulter counter (Analis, Suarlée, Belgium). In some experiments, the antibiotic plasmocin was added one or three days before addition of the test compounds.

[3] = test system: MCF-7/HYOR cells; assay: Nucleotide incorporation assay, MCF-7/HYOR compared with MCF-7 cells; settings: 1 μCi radiolabeled compound; FIG. 4
Method: MCF-7 and MCF-7/HYOR cells were seeded at 10,000 cells/cm. After 48 hours, cells were treated with 1 μCi of ^3H-labeled nucleoside with or without 10 μM TPi. 16 h later, the medium was removed and the cells were washed twice with PBS. Next, the cells were trypsinized, transferred to Eppendorf tubes and centrifuged for 10 minutes at 1,400 rpm. The pellet was resuspended in 1 ml absolute ice-cold methanol and kept on ice for 20 minutes. After centrifugation for 20 minutes at 13,000 rpm the pellet was washed twice with methanol, resuspended in methanol and transferred to scintillation vials containing 9 ml of Ready safe liquid scintillation reagent (‘Hisafe 3’, Perkin Elmer, Waltham, Mass.). The radioactivity was measured by a Liquid scintillation analyzer (2300 TR, Packard, Canberra, Australia).

[4] = test system: MCF-7/HYOR cell cultures; assay: Nucleoside metabolism experiments, distribution of drug-derived radiolabel in MCF-7/HYOR cell cultures; settings: MCF-7/HYOR
Method: Next, the cells were trypsinized, transferred to Eppendorf tubes and centrifuged for 10 minutes at 1,400 rpm. The pellet was resuspended in 1 ml absolute ice-cold methanol and kept on ice for 20 minutes. After centrifugation for 20 minutes at 13,000 rpm the pellet was washed twice with methanol, resuspended in methanol and transferred to scintillation vials containing 9 ml of Ready safe liquid scintillation reagent (‘Hisafe 3’, Perkin Elmer, Waltham, Mass.). The radioactivity was measured by a Liquid scintillation analyzer (2300 TR, Packard, Canberra, Australia). […] Next, the cells were incubated in 0.5 ml absolute ice-cold methanol and kept on ice for 20 minutes. After centrifugation for 20 minutes at 13,000 rpm, the supernatant was subjected to HPLC analysis. […] The amount of compound incorporated into nucleic acids was measured as described above.

[5] = M. hyorhinis-infected MCF-7, no TPi, no plasmocin, read-out: IC50 MCF-7/HYOR As such
[6] = M. hyorhinis-infected MCF-7, with 10 μM TPi, read-out: IC50 MCF-7/HYOR +TPi (10 μM)
[7] = MCF7, 96 h, no TPi, 4 days, read-out: IC50 MCF-7 As such
[8] = MCF7, with 10 μM TPi, read-out: IC50 MCF-7 +TPi (10 μM)
[9] = plasmocin 25 μg/ml, 1 day pretreatment, read-out: IC50 MCF-7/HYOR +plasmocin (25 μg/ml) 1 day prior to addition of test compounds
[10] = plasmocin 25 μg/ml, 3 days pretreatment, read-out: IC50 MCF-7/HYOR +plasmocin (25 μg/ml) 3 days prior to addition of test compounds

| SMILES | IC50 [1, 5] | IC50 [1, 6] | Ratio (1)/(2) MCF-7/HYOR [1] | IC50 [2, 7] | IC50 [2, 8] | Ratio (1)/(2) MCF-7 [2] | Incorporation into nucleic acids, infected versus uninfected MCF-7 cells (in words) [3] | also measured |
| --- | --- | --- | --- | --- | --- | --- | --- | --- |
| O=c1cc[nH]c(=O)[nH]1 [uracil] |  |  |  |  |  |  | no difference |  |
| O=c1[nH]cc(C(F)(F)F)c(=O)[nH]1 [TF-thymine] |  |  |  |  |  |  | no difference |  |
| O=c1ccn([C@H]2C[C@H](O)[C@@H](CO)O2)c(=O)[nH]1 [dUrd, 2′-deoxyuridine] |  |  |  |  |  |  |  | Reduction of incorporation into nucleic acids in infected MCF-7/HYOR cells in comparison with uninfected MCF-7 cells [3]: 3 fold |
| Nc1ccn([C@@H]2O[C@H](CO)[C@@H](O)[C@@H]2O)c(=O)n1 [araC, cytarabine] | 1200 ± 800 nM | 68 ± 3 nM | 17 | 50 ± 4 nM | 48 ± 9 nM | 1.0 |  | Anti-proliferative activity in MCF-7/HYOR after three days pre-incubation with doxycycline [1]: restores; Anti-proliferative activity in MCF-7/HYOR after three days pre-incubation with plasmocin ([1]; plasmocin 25 μg/ml): restores |
| O=c1[nH]cc(F)c(=O)[nH]1 [5FU, 5-fluorouracil] | 750 ± 240 nM | 530 ± 250 nM | 1.4 | 810 ± 240 nM | 620 ± 290 nM | 1.3 | no difference | IC50 [1, 9]: 740 ± 110 nM; IC50 [1, 10]: 670 ± 110 nM |
| Cc1c[nH]c(=O)[nH]c1=O [thymine] |  |  |  |  |  |  | no difference |  |

Now from value to compound, other results behind:

| IC50 [1, 5] | IC50 [1, 6] | SMILES | Ratio (1)/(2) MCF-7/HYOR [1] | IC50 [2, 7] | IC50 [2, 8] | Ratio (1)/(2) MCF-7 [2] | Incorporation into nucleic acids, infected versus uninfected MCF-7 cells (in words) [3] | also measured |
| --- | --- | --- | --- | --- | --- | --- | --- | --- |
| 13000 ± 2870 nM | 1400 ± 700 nM | O=c1[nH]c(=O)n([C@H]2C[C@H](O)[C@@H](CO)O2)cc1Cl [CldUrd, 5-chloro-2′-deoxyuridine] | 9.3 | 760 ± 190 nM | 640 ± 150 nM | 1.2 |  |  |
| 8600 ± 1170 nM | 840 ± 240 nM | O=c1[nH]c(=O)n([C@H]2C[C@H](O)[C@@H](CO)O2)cc1Br [BrdUrd, 5-bromo-2′-deoxyuridine] | 10 | 590 ± 100 nM | 360 ± 10 nM | 1.6 |  | % of drug-derived radiolabel, In medium, Base ([4]; 1 μCi, 16 h): 49.5%; % of drug-derived radiolabel, In medium, Nucleoside ([4]; 1 μCi, 16 h): 42.0%; % of drug-derived radiolabel, In the cytosol of the cells, 5′-diphosphate ([4]; 1 μCi, 16 h): 0.2%; % of drug-derived radiolabel, In the cytosol of the cells, 5′-monophosphate ([4]; 1 μCi, 16 h): 0.4%; % of drug-derived radiolabel, In the cytosol of the cells, 5′-triphosphate ([4]; 1 μCi, 16 h): 0.2%; % of drug-derived radiolabel, In the cytosol of the cells, Nucleoside/nucleobase ([4]; 1 μCi, 16 h): 6.4%; % of drug-derived radiolabel, Incorporatio into DNA/RNA ([4]; 1 μCi, 16 h): 1.4%; Share incorporated into the nucleic acids in the presence of TPi ([4]; in the presence of TPi): almost all; Reduction of incorporation into nucleic acids in infected MCF-7/HYOR cells in comparison with uninfected MCF-7 cells [3]: 45 fold; IC50 [1, 9]: 2220 ± 1100 nM; IC50 [1, 10]: 740 ± 200 nM |
| 13000 ± 3000 nM | 780 ± 230 nM | Nc1nc(Cl)nc2c1ncn2[C@H]1C[C@H](O)[C@@H](CO)O1 [cladribine] | 17 | 460 ± 150 nM | 390 ± 160 nM | 1.2 |  | Reduction of cytostatic activity in infected MCF-7/HYOR compared to control MCF-7 cells ([1]; M. hyorhinis infection): about 30 fold; Anti-proliferative activity in MCF-7/HYOR after three days pre-incubation with doxycycline [1]: restores; Anti-proliferative activity in MCF-7/HYOR after three days pre-incubation with plasmocin ([1]; plasmocin 25 μg/ml): restores |
| 12000 ± 500 nM | 310 ± 50 nM | O=c1[nH]c(=O)n([C@H]2C[C@H](O)[C@@H](CO)O2)cc1I [IdUrd, 5-iodo-2′-deoxyuridine] | 39 | 1100 ± 260 nM | 980 ± 390 nM | 1.1 |  |  |

From patent publication US20110065663A1, “ANTI-CANCER COMBINATION THERAPY” (Katholieke Universiteit Leuven, K.U. Leuven R&D, priority 2008, published 2011)
